{"source": "patent US11826400B2", "about": "“Neuregulin based compositions and uses thereof for preventing, treating or delaying the myocardial ischemia-reperfusion injury” (ZENSUN (SHANGHAI) SCIENCE & TECHNOLOGY LIMITED, priority 2010, dated 2023)", "tested_on": "myocardial ischemia reperfusion in rat", "assay": "Therapeutic effect on myocardial ischemia reperfusion in rat (coronary ligation 45 min, reperfusion 2 h, TCC staining of heart sections)", "assay_type": "in vivo, Wistar rats", "details": "Group D", "protocol": "Wistar rats (male, 200˜240 g) were divided into groups and administered with different dosages of rhNRG-1, placebo or rhThymosin-β4 (as shown in Table 1) after anaesthetized with intra-abdominal injection of 20% urethane (5 ml/kg). Thirty minutes after the drug started to be given to the rats, the anterior descending limb of the left coronary artery was ligated for 45 minutes to cause partial myocardium turned white obviously in the ligation area. After that the ligation thread was loosen to keep coronary blood flow for 2 hours and then take out the heart rapidly and wash vascular fat away with normal saline, and then freeze the heart in −30° C. for one hour.\nCut the heart parallelly from apex to base along coronary sulcus to myocardium sections with the thickness of 1 mm, and then put them into TCC dye liquor for 20 min in 37° C. in a shaker. After staining extra dye was washed immediately with water, and then the sections were put into 4% formalin for one hour. Photo and analyze the total size and the infarction size of were analyzed with Image Analysis Software. Infarction size ratio equals to the ratio of the infarction size and the total size of the myocardium section.", "data": [{"substance": "rhThymosin-β4: produced by Northland (Beijing) Bio-Technology Co Ltd, batch number: 20050728; comparator drug of Group D (SDKPDMAEIEKFDKSKLKKTETQEKNPLPSKETIEQEKQAGES; Thymosin beta-4; UniProt P62328 2-44, looked up)", "values": [{"measurement": "Infarction size compared with other groups", "setting": "2.5 mg/kg single intraperitoneal injection", "value": "no significant difference with other groups"}, {"measurement": "The myocardium infarction size ratio", "setting": "2.5 mg/kg single intraperitoneal injection 30 min before ligation, infarction size / total size of myocardium section, mean ± spread, 2.5 mg/kg", "value": "0.151±0.030"}]}]}
